Reference: patent EP0624575A1, “Substituted indoles and pharmaceutical compositions containing them” (ADIR ET COMPAGNIE, priority 1993, dated 1994)

Columns and labels:
granulocytes de lapins = assay: Anti-inflammatory activity: leukotriene B4 release from A 23187-stimulated granulocytes (RIA); assay type: cell-based; conditions: stimulation by calcium ionophore A 23187, mean of 3 independent measurements, versus control, read-out: pouvoir inhibiteur (leucotriènes B₄ libérés)
Text: Les mesures sont réalisées sur granulocytes de lapins. Les granulocytes isolés sont stimulés in vitro par l'ionophore calcique (A 23187). Les leucotriènes B₄ libérés dans le milieu extracellulaire sont mesurés par Radio Immuno Assay (RIA). Les résultats (moyennes de 3 mesures indépendantes) sont exprimés en pourcentage d'inhibition par rapport au témoin.

[1] = system: homogénats de cerveaux de rats; assay: Induced lipid peroxidation (Fe2+ - ascorbate) in rat brain homogenates (MDA); assay type: biochemical; conditions: ratio versus probucol, induced peroxidation (Fe²⁺ - ascorbate)
Procedure: L'action des composés utilisés selon l'invention, susceptibles de piéger les radicaux ·OH, a été étudiée d'une part, sur la peroxydation spontanée des lipides et d'autre part, sur la peroxydation induite par le système Fe²⁺ - ascorbate (10 µM - 250 µM), et ce, sur des homogénats de cerveaux de rats.
Lors de la mesure de la peroxydation lipidique spontanée, les homogénats de cerveau de rats sont placés en présence ou en absence des composés à tester durant 60 minutes à 37°C. La réaction est arrêtée à 0°C et le dosage du malondialdéhyde est effectué à l'aide d'acide thiobarbiturique. La peroxydation lipidique est déterminée par les substances réagissant avec l'acide thiobarbiturique exprimées en nanomoles de malondialdéhyde (MDA). Les concentrations des composés testés inhibant de 50 % la peroxydation du substrat sont calculées. Il est apparu que les composés de formule (I) utilisés selon l'invention possèdent une activité antiperoxydante particulièrement intense puisqu'ils possèdent une activité antiperoxydante nettement plus importante que le probucol et la vitamine E, qui est l'antioxydant naturel de l'organisme humain.
Lors de la mesure de la peroxydation lipidique induite, la méthodologie est identique à celle précédemment décrite à l'exception de l'addition à l'homogénat du système inducteur de radicaux : Fe²⁺ - ascorbate. […]

LDL natives = assay: Protection against LDL oxidation (Cu2+ system, 24 h incubation, FPLC analysis); assay type: biochemical; conditions: 10⁻⁵ M, 24 h incubation with native LDL and Cu²⁺ system, compared with probucol
Procedure: La capacité des composés de l'invention à diminuer les proportions de LDL oxydées a été mesurée de la façon suivante : on réalise une incubation de 24 heures regroupant des LDL natives, un système Cu²⁺ générateur de radicaux libres et les composés à tester. Les résultats sont obtenus après analyse du milieu par une technique chromatographique haute performance : la FPLC (Fast Protein Liquid Chromatography). Le pouvoir protecteur du composé testé est déterminé après comparaison du chromatogramme obtenu avec celui du témoin positif de référence : le probucol. Il apparaît clairement que les composés de l'invention ont un pouvoir protecteur très important. A titre de comparaison, pour une concentration de 10⁻⁵ M, le niveau de protection obtenu pour les composés de l'invention dépasse celui du probucol.

[2] = system: agrégation plaquettaire (plasma de lapin enrichi en plaquettes); assay: Anti-aggregant activity: platelet aggregation induced by sodium arachidonate; assay type: cell-based; conditions: aggregation induced by arachidonate de sodium (50 µg/ml); rabbit platelet-rich plasma; read-out: concentration minimale active
Procedure: Dans cette étude, les composés de l'invention (100 µg/ml) ont été testés dans le but de quantifier leur pouvoir d'inhibition du maximum non-réversible d'agrégation plaquettaire (plasma de lapin enrichi en plaquettes) induite par l'arachidonate de sodium (50 µg/ml). Ainsi, la concentration minimale active pour le composé de l'exemple 17 est de 30 µM.

With `CCCCN(C(=O)c1cc2cc(O)ccc2n1C)c1ccccc1` [exemple 17, N-(n-Butyl)-N-phényl-(5-hydroxy-1-méthylindol-2-yl)carboxamide] the inhibition at 10 µM (granulocytes de lapins) was 51%, the Ratio probucol [1] was 6 and the “pouvoir protecteur vis-à-vis d'un système oxydant des LDL” value (LDL natives) was “pratiquement total”. The minimal effective concentration [2] was 30 µM.
